Several values for one entry are separate records, joined by “and”; a condition that tells them apart may be missing. Equal values may be shown once. One block for each molecule: values may come before it.
Columns and labels:
Format in all cases: physicochemical
[1] = Maximum absorption wavelength (λmax) after color development, spectrophotometer MCPD3000; conditions: for Maximum absorption wavelength: after color development
Description: (§1) • [1] Maximum Absorption Wavelength (λmax): The maximum absorption wavelength after color development, measured using a spectrophotometer (instantaneous multichannel photodetector MCPD3000) manufactured by Otsuka Electronics Co., Ltd. was used as an indicator for the color tone during the color development. • [2] 23°C Color Optical Density (A23): A difference between an absorbancy measured after light irradiation at 23°C for 240 seconds {ε(240)} and an absorbancy without light irradiation ε(0) at the maximum absorption wavelength was used as an indicator for the color optical density. […] 35°C Color Optical Density (A35): A difference between an absorbancy measured after light irradiation at 35°C for 240 seconds {ε(240)} and an absorbancy without light irradiation ε(0) at the first and second absorption wavelengths was used as an indicator for the color optical density. […] 23°C color fading half-life [τ1/2 (sec.)]: A time required for the absorbancy of the sample at the maximum absorption wavelength to decrease to 1/2 of {ε(240)-ε(0)} when the light irradiation is terminated after the light irradiation at 23°C for 240 seconds, was used as an indicator for the color fading speed. The shorter this time, the higher the color fading speed. • [6] Residual rate (A90/A0×100): The obtained photochromic plastic lens was subjected to accelerated deterioration using a xenon weather meter X25 manufactured by Suga Test Instruments Co., Ltd. for 90 hours. Subsequently, the color optical density was evaluated before and after the test, then a color optical density before the test (A0) and a color optical density after the test (A90) were measured, and a ratio (A90/A0) was defined as a residual rate. The residual rate was used as an indicator for a color developing durability. The higher the residual rate, the higher the color developing durability.

[2] = 23°C color optical density (A23): absorbancy difference ε(240)-ε(0) after 240 s light irradiation at 23°C; conditions: 240 s irradiation; for 23°C color optical density (-): comparative compounds
Description: as §1

[3] = 35°C color optical density (A35): absorbancy difference ε(240)-ε(0) after 240 s light irradiation at 35°C; conditions: 240 s irradiation; for 35°C color optical density (-): comparative compounds
Description: as §1

[4] = High-temperature color development rate (A35/A23×100), temperature dependency
Description: as §1

[5] = Residual rate (A90/A0×100) after 90 h accelerated deterioration in xenon weather meter X25, color developing durability; conditions: for Residual rate (%): xenon weather meter 90 hours; for Residual rate: after 90 h accelerated deterioration
Description: as §1

[6] = binder sheet (binder method), urethaneurea resin photochromic layer between polycarbonate sheets, 0.25 mmol per 100 parts by mass resin
[7] = photochromic cured product by kneading method, 1 mm thick thiourethane, 0.106 mmol per 100 g monomers
[8] = photochromic laminate by coating method, 40 µm photochromic layer on thiourethane lens, 0.25 mmol compound per 100 g monomers
[9] = cured product by kneading method, 1 mm
[10] = photochromic laminate by coating method, at the maximum absorption wavelength
[11] = photochromic laminate by coating method
[12] = binder sheet (binder method), absorption peak at 474 nm
[13] = binder sheet (binder method), absorption peak at 566 nm
[14] = photochromic cured product, thickness 1 mm (kneading method), absorption band at 476 nm
[15] = photochromic cured product, thickness 1 mm (kneading method), absorption band at 573 nm
[16] = photochromic laminate prepared by coating method, absorption band at 474 nm
[17] = photochromic laminate prepared by coating method, absorption band at 567 nm
[18] = binder sheet (binder method), at 474 nm absorption maximum
[19] = binder sheet (binder method), at 566 nm absorption maximum
[20] = photochromic laminate by coating method, absorption band at 474 nm
[21] = photochromic laminate by coating method, absorption band at 567 nm

Structure (SMILES): COc1ccc(C2(c3ccc(OC)cc3)C=Cc3c4c(c5cc(N6CCOc7ccccc76)c(OC)cc5c3O2)-c2ccccc2C4(C)C)cc1 [Example 19 Formula (83)]
Maximum absorption wavelength (nm) [1, 6]: 515 nm | Maximum absorption wavelength (nm) [1, 7]: 519 nm | Maximum absorption wavelength (nm) [1, 8]: 515 nm | A23 (-) ([2]; binder sheet (binder method)): 1.36 - | A23 (-) [2, 9]: 1.37 - | A23 (-) [2, 10]: 1.34 - | A35 (-) ([3]; binder sheet (binder method)): 0.91 - | A35 (-) [3, 9]: 0.91 - | A35 (-) [3, 11]: 0.90 - | A35/A23 *100 (%) ([4]; binder sheet (binder method)): 67% | A35/A23 *100 (%) [4, 9]: 67% | A35/A23 *100 (%) [4, 11]: 67% | Residual rate (%) ([5]; binder sheet (binder method)): 91% | Residual rate (%) [5, 9]: 83% | Residual rate (%) [5, 11]: 77%

Structure (SMILES): CCCOc1ccc(C2(c3ccc(OCCC)cc3)C=Cc3c4c(c5cc(N(C)c6ccc(C)cc6)c(OC)cc5c3O2)-c2ccccc2C4(CCCCOC)CCCCOC)cc1 [Example 20 Formula (85)]
Maximum absorption wavelength (nm) [1, 6]: 503 nm | Maximum absorption wavelength (nm) [1, 7]: 507 nm | Maximum absorption wavelength (nm) [1, 8]: 503 nm | A23 (-) ([2]; binder sheet (binder method)): 1.23 - | A23 (-) [2, 9]: 1.24 - | A23 (-) [2, 10]: 1.22 - | A35 (-) ([3]; binder sheet (binder method)): 0.86 - | A35 (-) [3, 9]: 0.87 - | A35 (-) [3, 11]: 0.85 - | A35/A23 *100 (%) ([4]; binder sheet (binder method)): 70% | A35/A23 *100 (%) [4, 9]: 70% | A35/A23 *100 (%) [4, 11]: 70% | Residual rate (%) ([5]; binder sheet (binder method)): 93% | Residual rate (%) [5, 9]: 85% | Residual rate (%) [5, 11]: 81%

Structure (SMILES): CCCCOc1ccc(C2(c3ccc(OC)cc3)C=Cc3c4c(c5cc(N(C)c6ccccc6)c(OC)cc5c3O2)-c2ccc(-c3ccc(C(C)(C)C)cc3)cc2C4(CC)CC)cc1 (stereo not shown) [Example 45 Formula (94)]
Maximum absorption wavelength (nm) [1, 6]: 506 nm | Maximum absorption wavelength (nm) [1, 8]: 506 nm | A23 (-) ([2]; binder sheet (binder method)): 1.24 - | A23 (-) [2, 10]: 1.21 - | A35 (-) ([3]; binder sheet (binder method)): 0.88 - | A35 (-) [3, 11]: 0.86 - | A35/A23 *100 (%) ([4]; binder sheet (binder method)): 71% | A35/A23 *100 (%) [4, 11]: 71% | Residual rate (%) ([5]; binder sheet (binder method)): 92% | Residual rate (%) [5, 11]: 80%

Structure (SMILES): CCCCC1(CCCC)c2cc([Si](C)(C)C(C)(C)C)ccc2-c2c1c1c(c3cc(OC)c(N(CC)c4ccccc4)cc23)OC(c2ccc(OC)cc2)(c2ccc(OCCC)cc2)C=C1 (stereo not shown) [Example 46 Formula (99)]
Maximum absorption wavelength (nm) [1, 8]: 504 nm | A23 (-) [2, 10]: 1.29 - | A35 (-) [3, 11]: 0.90 - | A35/A23 *100 (%) [4, 11]: 70% | Residual rate (%) [5, 11]: 78%

Structure (SMILES): COc1ccc(C2(c3ccc(N4CCOCC4)cc3)C=Cc3c4c(c5cc(N6CCOc7ccccc76)c(C)cc5c3O2)-c2ccc(OC)cc2C4(CCCCF)CCCCF)cc1 (stereo not shown) [Example 47 Formula (102)]
Maximum absorption wavelength (nm) [1, 6]: 521 nm | Maximum absorption wavelength (nm) [1, 8]: 521 nm | A23 (-) ([2]; binder sheet (binder method)): 1.27 - | A23 (-) [2, 10]: 1.25 - | A35 (-) ([3]; binder sheet (binder method)): 0.84 - | A35 (-) [3, 11]: 0.83 - | A35/A23 *100 (%) ([4]; binder sheet (binder method)): 66% | A35/A23 *100 (%) [4, 11]: 66% | Residual rate (%) ([5]; binder sheet (binder method)): 88% | Residual rate (%) [5, 11]: 73%

Structure (SMILES): CCCOc1ccc(C2(c3ccc(OCCC)cc3)C=Cc3c4c(c5cc(N6CCOc7cc(C)ccc76)c(OC)cc5c3O2)-c2ccc(-c3ccc(C(F)(F)F)cc3)cc2C4(CCOC)CCOC)cc1 [Example 48 Formula (106)]
Maximum absorption wavelength (nm) [1, 6]: 513 nm | Maximum absorption wavelength (nm) [1, 8]: 513 nm | A23 (-) ([2]; binder sheet (binder method)): 1.39 - | A23 (-) [2, 10]: 1.36 - | A35 (-) ([3]; binder sheet (binder method)): 0.90 - | A35 (-) [3, 11]: 0.88 - | A35/A23 *100 (%) ([4]; binder sheet (binder method)): 65% | A35/A23 *100 (%) [4, 11]: 65% | Residual rate (%) ([5]; binder sheet (binder method)): 93% | Residual rate (%) [5, 11]: 77%

Structure (SMILES): CCCCCCCCC1(CCCCCCCC)c2cc([Si](c3ccccc3)(c3ccccc3)c3ccccc3)ccc2-c2c1c1c(c3cc(OC)c(N(c4ccccc4)c4ccccc4)cc23)OC(c2ccc(OCCC)cc2)(c2ccc(OCCC)cc2)C=C1 [Example 56 Formula (128)]
Maximum absorption wavelength (nm) [1, 8]: 508 nm | A23 (-) [2, 10]: 1.80 - | A35 (-) [3, 11]: 1.24 - | A35/A23 *100 (%) [4, 11]: 69% | Residual rate (%) [5, 11]: 81%

The remaining lines, values ahead:

Maximum absorption wavelength (nm) [1, 8]: 518 nm | A23 (-) [2, 10]: 1.82 - | A35 (-) [3, 11]: 1.34 - | A35/A23 *100 (%) [4, 11]: 74% | Residual rate (%) [5, 11]: 79%
Structure (SMILES): CCCCCCC1(CCCCCC)c2cc(Oc3ccccc3)ccc2-c2c1c1c(c3cc(OC)c(N(c4ccccc4)c4ccc(C)cc4)cc23)OC(c2ccc(OC)cc2)(c2ccc(OCCCC)cc2)C=C1 (stereo not shown) [Example 52 Formula (119)]

Maximum absorption wavelength (nm) [1, 8]: 457 nm and 592 nm | A23 (-) [2, 10]: 0.75 - and 0.82 - | A35 (-) [3, 11]: 0.49 - and 0.54 - | A35/A23 *100 (%) [4, 11]: 66% | Residual rate (%) [5, 11]: 76%
Structure (SMILES): COCCOCCOCCC1(CCOCCOCCOC)c2cc(-c3ccc(OC(C)C)cc3)ccc2-c2c1c1c(c3cc(OC)c(N(C)c4ccc(C(F)(F)F)cc4)cc23)OC(c2ccc(OC)cc2)(c2ccc(OC)cc2)C=C1 [Example 53 Formula (121)]

Maximum absorption wavelength (nm) ([1]; binder sheet (binder method), urethaneurea resin photochromic layer between polycarbonate sheets, 0.25 mmol per 100 parts by mass resin, at 474 nm absorption maximum): 474 nm | Maximum absorption wavelength (nm) ([1]; binder sheet (binder method), urethaneurea resin photochromic layer between polycarbonate sheets, 0.25 mmol per 100 parts by mass resin, at 566 nm absorption maximum): 566 nm | Maximum absorption wavelength [1, 12]: 474 nm | Maximum absorption wavelength [1, 13]: 566 nm | Maximum absorption wavelength (nm) ([1]; photochromic cured product by kneading method, 1 mm thick thiourethane, 0.106 mmol per 100 g monomers, absorption peak at 476 nm): 476 nm | Maximum absorption wavelength (nm) ([1]; photochromic cured product by kneading method, 1 mm thick thiourethane, 0.106 mmol per 100 g monomers, absorption peak at 573 nm): 573 nm | Maximum absorption wavelength [1, 14]: 476 nm | Maximum absorption wavelength [1, 15]: 573 nm | Maximum absorption wavelength (nm) ([1]; photochromic laminate by coating method, 40 µm photochromic layer on thiourethane lens, 0.25 mmol compound per 100 g monomers, absorption band at 474 nm): 474 nm | Maximum absorption wavelength (nm) ([1]; photochromic laminate by coating method, 40 µm photochromic layer on thiourethane lens, 0.25 mmol compound per 100 g monomers, absorption band at 567 nm): 567 nm | Maximum absorption wavelength [1, 16]: 474 nm | Maximum absorption wavelength [1, 17]: 567 nm | A23 (-) [2, 18]: 1.69 - | A23 (-) [2, 19]: 0.85 - | 23°C color optical density (-) [2, 20]: 1.65 - | 23°C color optical density (-) [2, 21]: 0.83 - | 35°C color optical density (-) [3, 20]: 1.14 - | 35°C color optical density (-) [3, 21]: 0.57 - | A35/A23 *100 [4, 12]: 69% | A35/A23 *100 [4, 13]: 68% | A35/A23 *100 (%) [4, 18]: 69% | A35/A23 *100 (%) [4, 19]: 68% | A35/A23 *100 (%) [4, 9]: 70% | A35/A23 *100 ([4]; photochromic cured product, thickness 1 mm (kneading method)): 70% | Temperature change rate (%) ([4]; photochromic laminate by coating method, comparative compounds, corresponds to A35/A23×100): 69% | A35/A23 *100 ([4]; photochromic laminate prepared by coating method): 69% | Residual rate [5, 12]: 70% | Residual rate [5, 13]: 76% | Residual rate (%) [5, 18]: 70% | Residual rate (%) [5, 19]: 76% | Residual rate (%) ([5]; cured product by kneading method, 1 mm, absorption peak at 476 nm): 60% | Residual rate (%) ([5]; cured product by kneading method, 1 mm, absorption peak at 573 nm): 65% | Residual rate [5, 14]: 60% | Residual rate [5, 15]: 65% | Residual rate (%) [5, 20]: 53% | Residual rate (%) [5, 21]: 57% | Residual rate [5, 16]: 53% | Residual rate [5, 17]: 57%
Structure (SMILES): COc1ccc(C2(c3ccc(OC)cc3)C=Cc3c4c(c5cc(N6CCOCC6)c(OC)cc5c3O2)-c2ccccc2C4(C)C)cc1 [Formula (A), reference compound]
